Active and inactive are the calls of the source. The rule behind the calls is not given here.
Experiments:
HCCLM9 [1] = experiment: Induction of apoptosis in human HCCLM9 cells at 3.5 to 14 uM measured by Annexin V /propidium iodide staining method; assay type: functional, cell-based; details: dose 3.5-14 µM
MDA-MB-231 = experiment: Antiproliferative activity against human MDA-MB-231 cells after 72 hrs by MTT assay; assay type: functional, cell-based; details: MDA-MB-231, 72 h
HCCLM9 [2] = experiment: Inhibition of MMP-9 expression in human HCCLM9 cells at 3.75 to 15 uM measured by western blot analysis; assay type: functional, cell-based; details: dose 3.75-15 µM
SGC-7901 = experiment: Antiproliferative activity against human SGC-7901 cells after 72 hrs by MTT assay; assay type: functional, cell-based; details: SGC-7901, 72 h
U-251 = experiment: Antiproliferative activity against human U-251 cells after 72 hrs by MTT assay; assay type: functional, cell-based; details: U-251, 72 h
HCCLM9 [3] = experiment: Induction of cell cycle arrest in human HCCLM9 cells assessed as decrease in cell accumulation at S phase at 3.75 to 15 uM measured after 48 hrs by flow cytometry analysis; assay type: functional, cell-based; details: dose 3.75-15 µM
L02 = experiment: Antiproliferative activity against human L02 cells after 72 hrs by MTT assay; assay type: functional, cell-based; details: L02, 72 h
Huh-7 [4] = experiment: Antiproliferative activity against human Huh-7 cells at 2 to 8 uM after 24 hrs by EdU incorporation assay; assay type: functional, cell-based; details: dose 2-8 µM
SK-HEP1 = experiment: Antiproliferative activity against human SK-HEP1 cells after 72 hrs by MTT assay; assay type: functional, cell-based; details: SK-HEP1, 72 h
Huh-7 [5] = experiment: Induction of cell cycle arrest in human Huh-7 cells assessed as decrease in cell accumulation at S phase at 5 to 20 uM measured after 48 hrs by flow cytometry analysis; assay type: functional, cell-based; details: dose 5-20 µM
MCF7 = experiment: Antiproliferative activity against human MCF7 cells after 72 hrs by MTT assay; assay type: functional, cell-based; details: MCF7, 72 h
RKO = experiment: Antiproliferative activity against human RKO cells after 72 hrs by MTT assay; assay type: functional, cell-based
HCCLM9 [6] = experiment: Antitumor activity against human HCCLM9 cells xenografted in male BALB/c nude mouse assessed as inhibition of tumor growth at 15 mg/kg, iv administered once a day for 21 days; assay type: functional, organism-based; details: time 21.0 day
HCCLM9 [7] = experiment: Induction of apoptosis in human HCCLM9 cells assessed as increase in Bax expression at 3.75 to 15 uM; assay type: functional, cell-based; details: dose 3.75-15 µM
Huh-7 [8] = experiment: Anticlonogenic activity in human Huh-7 cells at 2 to 8 uM measured by colony formation assay; assay type: functional, cell-based; details: dose 2-8 µM
Huh-7 [9] = experiment: Induction of apoptosis in human Huh-7 cells assessed as increase in cleaved caspase-9 expression at 5 to 20 uM; assay type: functional, cell-based; details: dose 5-20 µM
Huh-7 [10] = experiment: Induction of apoptosis in human Huh-7 cells at 5 to 20 uM measured by Hoechst staining method; assay type: functional, cell-based; details: dose 5-20 µM
Huh-7 [11] = experiment: Antiproliferative activity against human Huh-7 cells after 72 hrs by MTT assay; assay type: functional, cell-based; details: Huh-7, 72 h
Huh-7 [12] = experiment: Inhibition of cell migration in human Huh-7 cells at 2 to 8 uM after 24 hrs by transwell assay; assay type: functional, cell-based; details: dose 2-8 µM
HCCLM9 [13] = experiment: Inhibition of cell migration in human HCCLM9 cells at 1.25 to 5 uM after 24 hrs by transwell assay; assay type: functional, cell-based; details: dose 1.25-5 µM
[14] = Toxicity in male BALB/c nude mouse xenografted with human HCCLM9 cells assessed as effect on body weight at 15 mg/kg, iv administered once a day for 21 days; assay type: organism-based; details: in vivo, 504 h, time 21 day
Huh-7 [15] = experiment: Induction of apoptosis in human Huh-7 cells assessed as increase in cleaved caspase-3 expression at 5 to 20 uM; assay type: functional, cell-based; details: dose 5-20 µM
HCCLM9 [16] = experiment: Induction of apoptosis in human HCCLM9 cells at 3.5 to 14 uM measured by Hoechst staining method; assay type: functional, cell-based; details: dose 3.5-14 µM
Huh-7 [17] = experiment: Induction of apoptosis in human Huh-7 cells assessed as increase in cytochrome C expression at 5 to 20 uM; assay type: functional, cell-based; details: dose 5-20 µM
HCCLM9 [18] = experiment: Induction of apoptosis in human HCCLM9 cells assessed as reduction in Bcl-2 expression at 3.75 to 15 uM; assay type: functional, cell-based; details: dose 3.75-15 µM
BGC-823 = experiment: Antiproliferative activity against human BGC-823 cells after 72 hrs by MTT assay; assay type: functional, cell-based; details: BGC-823, 72 h
HCCLM9 [19] = experiment: Induction of cell cycle arrest in human HCCLM9 cells assessed as decrease in cell accumulation at G0/G1 phase at 3.75 to 15 uM measured after 48 hrs by flow cytometry analysis; assay type: functional, cell-based; details: dose 3.75-15 µM
[20] = Observed apparent oral clearance in male Sprague-Dawley rat at 100 mg/kg, ip; assay type: ADME, organism-based; details: in vivo
Huh-7 [21] = experiment: Induction of mitochondrial apoptosis in human Huh-7 cells assessed as inhibition of p-mTOR levels at 5 to 20 uM measured after 48 hrs by Western blot analysis; assay type: functional, cell-based; details: dose 5-20 µM
Huh-7 [22] = experiment: Induction of mitochondrial dysfunction in human Huh-7 cells assessed as decrease in MMP levels at 5 to 20 uM; assay type: functional, cell-based; details: dose 5-20 µM
[23] = Cmax in male Sprague-Dawley rat at 100 mg/kg, ip; assay type: ADME, organism-based; set-up: dose 100 mg/kg, route ip; details: in vivo
[24] = Genotoxicity in human HCCLM9 cells assessed as induction of DNA damage at 20 uM by comet assay; assay type: toxicity, cell-based; details: hcclm9, 20 µM
HCCLM9 [25] = experiment: Induction of mitochondrial apoptosis in human HCCLM9 cells assessed as inhibition of p-mTOR levels at 3.75 to 15 uM measured after 48 hrs by Western blot analysis; assay type: functional, cell-based; details: dose 3.75-15 µM
[26] = Genotoxicity in human Huh-7 cells assessed as induction of DNA damage at 20 uM by comet assay; assay type: toxicity, cell-based; details: huh-7, 20 µM
Huh-7 [27] = experiment: Induction of mitochondrial apoptosis in human Huh-7 cells assessed as inhibition of p-PI3K levels at 5 to 20 uM measured after 48 hrs by Western blot analysis; assay type: functional, cell-based; details: dose 5-20 µM
[28] = Tmax in male Sprague-Dawley rat at 100 mg/kg, ip; assay type: ADME, organism-based; details: in vivo
HCCLM9 [29] = experiment: Inhibition of cell invasion in human HCCLM9 cells at 1.25 to 5 uM after 24 hrs; assay type: functional, cell-based; details: dose 1.25-5 µM
HCCLM9 [30] = experiment: Induction of cell cycle arrest in human HCCLM9 cells assessed as increase in cell accumulation at G2/M phase at 3.75 to 15 uM measured after 48 hrs by flow cytometry analysis; assay type: functional, cell-based; details: dose 3.75-15 µM
HCCLM9 [31] = experiment: Antiproliferative activity against human HCCLM9 cells at 1.25 to 5 uM after 24 hrs by EdU incorporation assay; assay type: functional, cell-based; details: dose 1.25-5 µM
HCCLM9 [32] = experiment: Induction of mitochondrial apoptosis in human HCCLM9 cells assessed as inhibition of p-PI3K levels at 3.75 to 15 uM measured after 48 hrs by Western blot analysis; assay type: functional, cell-based; details: dose 3.75-15 µM
HepG2 = experiment: Antiproliferative activity against human HepG2 cells after 72 hrs by MTT assay; assay type: functional, cell-based; details: HepG2, 72 h
SW480 = experiment: Antiproliferative activity against human SW480 cells after 72 hrs by MTT assay; assay type: functional, cell-based; details: SW480, 72 h
HCCLM9 [33] = experiment: Anticlonogenic activity in human HCCLM9 cells at 1.25 to 5 uM measured by colony formation assay; assay type: functional, cell-based; details: dose 1.25-5 µM
Huh-7 [34] = experiment: Induction of apoptosis in human Huh-7 cells assessed as reduction in Bcl-2 expression at 5 to 20 uM; assay type: functional, cell-based; details: dose 5-20 µM
[35] = AUC (0 to t) in male Sprague-Dawley rat at 100 mg/kg, ip; assay type: ADME, organism-based; set-up: dose 100 mg/kg, route ip; details: in vivo

## CNCc1cc2c(cc1-c1cc3ccc4c(c3cn1)OCO4)OCO2
HCCLM9 [1]
  Activity: Active
MDA-MB-231
  IC50: 19.9 µM
HCCLM9 [2]
  inhibition: Active
SGC-7901
  IC50: 30.8 µM
U-251
  IC50: 13.5 µM
HCCLM9 [3]
  Activity: Active
L02
  IC50: > 150 µM
Huh-7 [4]
  Activity: Active
SK-HEP1
  IC50: 16.5 µM
Huh-7 [5]
  Activity: Active
MCF7
  IC50: 22.4 µM
RKO
  IC50: 47.8 µM
HCCLM9 [6]
  Activity: Active
HCCLM9 [7]
  Activity: Active
Huh-7 [8]
  Activity: Active
Huh-7 [9]
  Activity: Active
Huh-7 [10]
  Activity: Active
Huh-7 [11]
  IC50: 9.82 µM
Huh-7 [12]
  inhibition: Active
HCCLM9 [13]
  inhibition: Active
[14]
  Activity: Non-Toxic
Huh-7 [15]
  Activity: Active
HCCLM9 [16]
  Activity: Active
Huh-7 [17]
  Activity: Active
HCCLM9 [18]
  Activity: Active
BGC-823
  IC50: 17.7 µM
HCCLM9 [19]
  Activity: Active
[20]
  CL/F: 20.42 (mg)/(ug/ml)/hr
Huh-7 [21]
  Activity: Active
Huh-7 [22]
  Activity: Active
[23]
  Cmax: 8900 ng/mL
[24]
  Activity: Non-Toxic
HCCLM9 [25]
  Activity: Active
[26]
  Activity: Non-Toxic
Huh-7 [27]
  Activity: Active
[28]
  Tmax: 1 h
HCCLM9 [29]
  inhibition: Active
HCCLM9 [30]
  Activity: Active
HCCLM9 [31]
  Activity: Active
HCCLM9 [32]
  Activity: Active
HepG2
  IC50: 52 µM
SW480
  IC50: 9.04 µM
HCCLM9 [33]
  Activity: Active
Huh-7 [34]
  Activity: Active
[35]
  AUC(0-t): 31600 ng·h/mL
